Data from patent US8440653B2, “3-substituted-1,4-diazepan-2-one melanocortin-5 receptor antagonists” (Mimetica Pty Ltd, priority 2008, dated 2013).
pEC50, pIC50: −log10 of the molar value. Where two headings read alike, the source gives them in different places.

Tests used:
[1] = target: T1, human MC3R (Homo sapiens, UniProt P41968); assay: Human MC3R radioligand binding assay; details: [125I] NDP-MSH
T1 construct: expressed in transfected cells; host or cells: transfected mammalian cells, if the membranes were in-house
T1 sequence (P41968 whole entry): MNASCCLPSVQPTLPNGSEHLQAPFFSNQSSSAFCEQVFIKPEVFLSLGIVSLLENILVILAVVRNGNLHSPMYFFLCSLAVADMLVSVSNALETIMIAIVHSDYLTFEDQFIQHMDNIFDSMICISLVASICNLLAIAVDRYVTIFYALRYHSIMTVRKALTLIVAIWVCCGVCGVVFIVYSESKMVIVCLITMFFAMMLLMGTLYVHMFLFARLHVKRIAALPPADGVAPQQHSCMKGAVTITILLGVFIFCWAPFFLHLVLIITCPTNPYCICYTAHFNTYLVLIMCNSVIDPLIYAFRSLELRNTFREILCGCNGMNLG
Description: (§1) Assays were performed in 96 well polypropylene plates. […] This was incubated for 1 hr at 37° C. […] Non-specific binding just under 5%.
(§2) Radioligand binding assays were carried out using commercial or in-house prepared hMC1R, hMC3R and hMC4R membranes and [^125I] NDP-MSH, as per hMC5R procedure in Example 46.
(§3) The homogenisation and ice incubation was repeated three times. The mixture was then centrifuged at 1260×g for 5 mins. […] This was centrifuged at 30,000×g for 90 mins at 4° C.

[2] = target: T2, human MC5R (Homo sapiens, UniProt P33032); assay: cAMP stimulation assay (agonism) in HEK 293 cells expressing human MC5R; type: cell-based; details: HEK 293 cells transiently expressing MC5R
T2 construct: host or cells: HEK 293, transient transfection
T2 sequence (P33032 whole entry): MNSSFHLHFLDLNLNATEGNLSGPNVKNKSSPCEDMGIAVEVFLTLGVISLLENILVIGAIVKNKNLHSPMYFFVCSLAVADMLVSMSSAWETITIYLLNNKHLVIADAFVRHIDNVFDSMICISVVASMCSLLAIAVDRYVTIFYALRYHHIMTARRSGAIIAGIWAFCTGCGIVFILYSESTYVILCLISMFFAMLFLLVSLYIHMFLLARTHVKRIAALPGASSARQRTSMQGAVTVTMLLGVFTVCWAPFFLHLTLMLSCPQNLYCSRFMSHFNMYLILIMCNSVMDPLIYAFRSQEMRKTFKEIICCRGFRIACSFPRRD
Description: (§4) HEK 293 cells transiently expressing the melanocortin MC5 receptor were suspended in stimulation buffer (Hanks buffered saline solution (HBSS), 0.1% bovine serum albumin, protease inhibitors and 0.5 mM 3-Isobutyl-1-methylxanthine) at 4×10^6 cells/mL. 5 μl of cells, plus the compounds/peptides as described below, were added to wells of a 384-well plate as soon as possible after resuspension.
To detect agonist activity, test compounds at varying concentrations were diluted in stimulation buffer at two times concentrate and 5 μl was added to wells containing cells. Positive control wells contained NDP-MSH or alpha-MSH alone (no compound) at two times concentrate
(§5) Basal level (of cAMP) control wells contained stimulation buffer only (no agonist or compounds). […] After incubation, 10 μl of lysis buffer (10% Tween 20, 1 M HEPES, 0.1% BSA, protease inhibitors, ddH2O) was added to all wells to be measured. […] 5 μl of diluted acceptor beads were added to each well to be measured, then the plate was incubated for 30 mins at room temperature, in the dark, with gentle shaking. […] Plates were read on an Envision plate reader (Perkin Elmer) after 1 hr and ˜16 hrs incubation. cAMP concentration in the cells was determined by the use of a ‘standard curve’ generated from the output of known cAMP concentrations as described below. […]

[3] = target: T3, rhesus monkey MC5R (Macaca mulatta, UniProt A0A5F8AEA9); assay: MC5R radioligand binding assay, other species: rhesus monkey MC5R membranes; details: membranes of cells expressing cloned receptor
T3 construct: expressed in transfected cells
T3 sequence (A0A5F8AEA9 1-325): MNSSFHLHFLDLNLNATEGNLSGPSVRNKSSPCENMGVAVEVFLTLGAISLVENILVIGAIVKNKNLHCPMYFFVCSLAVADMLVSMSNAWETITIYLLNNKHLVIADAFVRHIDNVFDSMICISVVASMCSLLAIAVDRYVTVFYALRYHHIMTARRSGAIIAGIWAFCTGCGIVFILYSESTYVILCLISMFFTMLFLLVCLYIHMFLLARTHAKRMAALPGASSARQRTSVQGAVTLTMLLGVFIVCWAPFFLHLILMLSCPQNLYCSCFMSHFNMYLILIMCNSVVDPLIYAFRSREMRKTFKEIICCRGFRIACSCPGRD
Description: as §1
(§6) Representative compounds of the present invention were tested for binding to MC5R from other species, as in described in Example 48, the results are listed in Table 4.

[4] = target: T4, human MC5R (hMC5R) (Homo sapiens, UniProt P33032); assay: Human MC5R radioligand binding assay ([125I] NDP-MSH displacement)
T4 construct: purchased Perkin Elmer RBXMC5M400UA
T4 sequence (P33032 whole entry): as the sequence (P33032 whole entry) above
Description: Assessments of compound binding to human MC5R (hMC5R) by displacement of an ^125I-labeled NDP-MSH receptor ligand peptide were performed essentially as described in the data sheets produced by Perkin Elmer to accompany their frozen hMC5R membranes (Perkin Elmer catalog number RBXMC5M400UA).
Na^125I (0.5 mCi, 17.4 Ci/mg) was added to 50 μL sodium phosphate (50 mM, pH 7.4) in an eppendorf tube precoated with IODOGEN. After incubation for 10 mins the phosphate buffer containing the iodine was added to NDP-MSH (10 ul at 1 mg/mL) in a separate eppendorf tube. This was incubated for a further 10 mins. The iodinated NDP-MSH was purified by HPLC on a Zorbax SB 300 column using solvent A: 0.05% TFA and solvent B: 90% acetonitrile 0.045% TFA with a linear gradient, 0-67% B over 60 mins. The ^125I NDP-MSH eluted at 52 min after the unlabeled starting material (48 min) and was counted and stored in the freezer.
Incubation buffer: 25 mM HEPES-KOH (pH 7.0), 1.5 mM CaCl2, 1 mM MgSO4, 0.1 M NaCl, 1 mM 1,10-phenanthroline, and 1 Complete™ protease inhibitor tablet/100 mL (Roche, catalog number 1873580)
Perkin Elmer frozen hMC5 membranes: catalog number RBXMC5M400UA, 0.4 mL/vial; 400 microassays/vial. 0.78 mg/mL protein concentration
Vials of frozen membranes were thawed rapidly immediately before use, diluted with binding buffer and vortexed. Resuspended membranes were kept on ice until they were added to the wells of the plate.
as §1
Representative compounds of the present invention were tested for binding in the hMC5R assay as in Example 46, as listed in Table 3. The compounds were tested as their trifluoroacetate or hydrochloride salts, or as their free bases.

[5] = target: T5, human MC4R (Homo sapiens, UniProt P32245); assay: Human MC4R radioligand binding assay; details: [125I] NDP-MSH
T5 construct: expressed in transfected cells; host or cells: transfected mammalian cells, if the membranes were in-house
T5 sequence (P32245 whole entry): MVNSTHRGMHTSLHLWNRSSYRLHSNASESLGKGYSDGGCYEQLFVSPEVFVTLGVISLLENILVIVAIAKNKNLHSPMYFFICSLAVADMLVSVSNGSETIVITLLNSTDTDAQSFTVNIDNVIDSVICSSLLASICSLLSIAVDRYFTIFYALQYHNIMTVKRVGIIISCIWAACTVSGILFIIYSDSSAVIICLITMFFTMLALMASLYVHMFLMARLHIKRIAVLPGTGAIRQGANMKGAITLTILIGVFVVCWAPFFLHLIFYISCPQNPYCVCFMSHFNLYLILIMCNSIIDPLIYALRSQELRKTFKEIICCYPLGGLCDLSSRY
Description: as §1, §2, §3

[6] = target: T6, mouse MC5R (Mus musculus, UniProt P41149); assay: MC5R radioligand binding assay, other species: mouse MC5R membranes; details: membranes from Euroscreen; read-out: mouse MC5R (membrane) IC50
T6 construct: purchased Euroscreen
T6 sequence (P41149 whole entry): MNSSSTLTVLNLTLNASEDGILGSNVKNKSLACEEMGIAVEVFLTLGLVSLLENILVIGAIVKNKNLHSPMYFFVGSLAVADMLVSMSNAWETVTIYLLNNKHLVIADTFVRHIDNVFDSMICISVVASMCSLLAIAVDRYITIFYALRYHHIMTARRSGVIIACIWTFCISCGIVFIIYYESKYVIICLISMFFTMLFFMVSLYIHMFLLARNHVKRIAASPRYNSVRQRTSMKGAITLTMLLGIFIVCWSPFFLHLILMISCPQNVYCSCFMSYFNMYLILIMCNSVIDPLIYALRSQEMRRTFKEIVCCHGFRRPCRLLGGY
Description: as §1, §6

[7] = target: T7, human MC1R (Homo sapiens, UniProt Q01726); assay: Human MC1R radioligand binding assay; details: [125I] NDP-MSH
T7 construct: expressed in transfected cells; host or cells: transfected mammalian cells, if the membranes were in-house
T7 sequence (Q01726 whole entry): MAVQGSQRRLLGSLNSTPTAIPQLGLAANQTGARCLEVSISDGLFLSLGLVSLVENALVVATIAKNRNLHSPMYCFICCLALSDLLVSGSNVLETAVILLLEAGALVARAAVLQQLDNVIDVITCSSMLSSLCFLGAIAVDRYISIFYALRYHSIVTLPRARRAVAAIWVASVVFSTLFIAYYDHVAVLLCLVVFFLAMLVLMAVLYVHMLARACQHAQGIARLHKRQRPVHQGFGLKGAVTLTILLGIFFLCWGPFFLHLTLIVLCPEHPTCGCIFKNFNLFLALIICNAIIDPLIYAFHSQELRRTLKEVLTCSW
Description: as §1, §2, §3

[8] = target: T2, human MC5R; assay: cAMP assay (antagonism of alpha-MSH) in HEK 293 cells expressing human MC5R; type: cell-based; details: HEK 293 cells transiently expressing MC5R; 10^−6 M alpha-MSH
Description: as §4
To detect antagonist activity, test compounds at varying concentrations were diluted in stimulation buffer at four times concentrate and 2.5 μl was added to wells containing cells. 2.5 μl of a four times required concentration of NDP-MSH or alpha-MSH was added to all wells containing compounds. […]
as §5

[9] = test system: sebum excretion; details: oral isotretinoin, after 8-12 weeks of therapy; cited from earlier work
[10] = Table 5, hMCR binding selectivity, read-out: human MC5R IC50
[11] = hMC5R membranes, [125I] NDP-MSH, tested as trifluoroacetate or hydrochloride salts or free bases, read-out: MC5R radioligand IC50

Work on CC[C@H](CN1CC[C@@H](CNC(=O)c2ccc3cc(Cl)ccc3c2)N[C@@H](CCC(C)C)C1=O)c1ccccc1 [Compound 17, 6-chloro-N-(((3S,5S)-3-isopentyl-2-oxo-1-((S)-2-phenylbutyl)-1,4-diazepan-5-yl)methyl)-2-naphthamide] yielded a pIC50 [1] of 5.52, a pEC50 [2] of under 5.00 and a pIC50 [3] of 5.42. It also gave a pIC50 ([4]; Table 4, membranes, read-out: human MC5R (membrane) IC50) of 7.52, a pIC50 [4, 10] of 7.52 and a pIC50 [4, 11] of over 7.00. For the same compound, the pIC50 [5] was under 5.00, the pIC50 [6] was 5.64 and the pIC50 [7] was under 5.00. It also gave a pIC50 [8] of 5.22.

With CC[C@H](CN1CC[C@@H](CNC(=O)c2ccc3cc(Cl)ccc3c2)N[C@@H](CCC(=O)N2CCCCC2)C1=O)c1ccccc1 [Compound 66, 6-chloro-N-(((3S,5S)-2-oxo-3-(3-oxo-3-(piperidin-1-yl)propyl)-1-((S)-2-phenylbutyl)-1,4-diazepan-5-yl)methyl)-2-naphthamide] the pIC50 [1] was 5.30, the pEC50 [2] was under 5.00 and the pIC50 [4, 10] was 7.30. It also gave a pIC50 [4, 11] of over 7.00, a pIC50 [5] of under 5.00 and a pIC50 [7] of under 5.00. For the same compound, the pIC50 [8] was 6.22.

In the case of CC[C@H](CN1CC[C@@H](CNC(=O)c2ccc(Cl)c(Cl)c2)N[C@@H](CCO)C1=O)c1ccccc1 [Compound 80, 3,4-dichloro-N-(((3S,5S)-3-(2-hydroxyethyl)-2-oxo-1-((S)-2-phenylbutyl)-1,4-diazepan-5-yl)methyl)benzamide], the pIC50 [4, 11] was over 5.00.

For CC1=C(/C=C/C(C)=C/C=C/C(C)=C\C(=O)O)C(C)(C)CCC1 [isotretinoin, 13-cis-retinoic acid], the “reduction of sebum excretion” value [9] is given as “up to 90%”.
